Results taken from US20170202835A1, “OSMOLYTE-CONTAINING PREPARATION FOR THE TREATMENT OF DRY MUCOUS MEMBRANES” (Bitop AG, priority 2007, published 2017).
“Also recorded” adds a separate entry of the source.

System: TR146 cells
Assay: Mucus production in TR146 cells (PAS staining, image analysis)
Format: cell-based, human
Details: 0.5% FCS, 16 h incubation
Protocol: To evaluate possible effects of compatible solutes on mucus production an in vitro cell culture model was used. For this purpose a mucus producing cell line, TR146, served as a model for the situation in the human mouth. The cells were incubated with ectoine and other substances. After treatment the cells were stained with PAS (Periodic Acid-Schiff) to determine the mucus content.
TR146 cells were seeded and grown on glass plates in 96 wells until they reached nearly confluence. The glass plates were coated with Poly-L-Lysine to ensure a good attachment of the cells. After reaching confluence the cells were set to 0.5% FCS (Fetal Calf Serum) and were incubated with ectoine, glucosylglycerole and prostaglandine for 16 h, whereas the control sample was not treated further. Prostaglandine is known in the literature to stimulate mucus production (Tani et al., Biol Pharm Bull 25 (1), 2002, 14-18).
After the incubation time, cells were stained with a PAS staining kit from Sigma Aldrich to stain the whole mucus on top of the cells. For analysis pictures were taken with the Dino Eye Capture Camera. The pictures were afterwards analyzed with Image J software.
These areas were marked with the Image software Image J and the pixel area was determined. The average results were given as percentage relative to the control (=100%) (FIG. 2).

Row | SMILES | Mucus production (PAS-stained pixel area relative to control = 100%)
1 | CC1=NC(C(=O)O)CCN1 (stereo not drawn) [Ectoine, 1,4,5,6-tetrahydro-2-methyl-pyrimidine-4-carboxylic acid] | showed a tendency to stimulate the mucus production; also recorded: did so, too, although to a lesser extent
2 | CCCCC[C@H](O)/C=C/[C@H]1[C@H](O)CC(=O)[C@@H]1C/C=C\CCCC(=O)O [Prostaglandin E2, reference compound] | showed an induction of mucus production
3 | OCC(CO)O[C@H]1O[C@H](CO)[C@@H](O)[C@H](O)[C@H]1O [glucosylglycerol] | showed a tendency to stimulate the mucus production; also recorded: did so, too, although to a lesser extent
